In assay [1] the target is T1, human recombinant serotonin (5-Hydroxytryptamine) 5-HT2A receptor (Homo sapiens, UniProt P28223).
T1 construct: expressed in transfected cells; host or cells: CHO-K1 cells
Put plainly: Serotonin 5-HT2A radioligand binding ([3H]Ketanserin). The following applies: for inhibition at 0.01 µM: compound concentration 10 nM; for inhibition at 0.03 µM: compound concentration 0.03 μM; for inhibition at 0.1 µM: compound concentration 0.1 μM; for inhibition at 0.3 µM: compound concentration 0.3 μM. The gist of the method:
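Membranes from CHO-K1 cells expressing the receptor, in 50 mM Tris-HCl pH 7.4, incubated 60 min at 25° C with 0.5 nM [3H]Ketanserin; 1 μM Mianserin defines non-specific binding. Filtration and counting; values are % inhibition of specific binding at 1 μM or lower, 1% DMSO.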

Assay [2] deals with T2, human recombinant histamine H2 receptor (Homo sapiens, UniProt P25021).
T2 construct: expressed in transfected cells; host or cells: CHO-K1 cells
Put plainly: Histamine H2 radioligand binding ([125I]Aminopotentidine). The method in brief:
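Membranes of CHO-K1 cells expressing human H2 receptor incubated with 0.1 nM [125I]aminopotentidine, 120 min, 25 °C, 50 mM phosphate pH 7.4; nonspecific binding defined with 3 μM tiotidine.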

In assay [3] the target is T3, human recombinant serotonin (5-Hydroxytryptamine) 5-HT2C receptor (Homo sapiens, UniProt P28335).
T3 construct: expressed in transfected cells; host or cells: CHO-K1 cells
T3 sequence (P28335 33-458): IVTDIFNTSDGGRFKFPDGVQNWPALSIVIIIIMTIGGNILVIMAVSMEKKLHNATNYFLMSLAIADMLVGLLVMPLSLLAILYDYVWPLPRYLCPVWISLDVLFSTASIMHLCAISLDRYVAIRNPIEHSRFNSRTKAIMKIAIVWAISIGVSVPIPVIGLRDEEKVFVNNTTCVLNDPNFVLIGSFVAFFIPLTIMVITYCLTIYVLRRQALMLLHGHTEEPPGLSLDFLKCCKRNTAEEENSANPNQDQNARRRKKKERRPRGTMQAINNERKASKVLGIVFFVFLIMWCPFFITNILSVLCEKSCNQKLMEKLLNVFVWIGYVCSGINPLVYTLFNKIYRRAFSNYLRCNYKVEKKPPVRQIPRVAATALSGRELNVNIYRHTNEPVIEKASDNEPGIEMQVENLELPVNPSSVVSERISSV
Put plainly: Serotonin 5-HT2C radioligand binding ([3H]Mesulergine). How it is done:
Compounds of the invention were incubated with 1 nM [^3H]Mesulergine for 60 minutes at 25° C. Non-specific binding was estimated in the presence of 1 μM Mianserin. Receptor proteins were filtered and washed, the filters were then counted to determine [^3H]Mesulergine specifically bound. […] Biochemical assay results are presented as the percent inhibition of specific binding in Table 5.

Assay [4] concerns the target T4, human recombinant adrenergic α2B receptor (Homo sapiens, UniProt P18089).
T4 construct: expressed in transfected cells; host or cells: CHO-K1 cells
T4 sequence (P18089 1-450): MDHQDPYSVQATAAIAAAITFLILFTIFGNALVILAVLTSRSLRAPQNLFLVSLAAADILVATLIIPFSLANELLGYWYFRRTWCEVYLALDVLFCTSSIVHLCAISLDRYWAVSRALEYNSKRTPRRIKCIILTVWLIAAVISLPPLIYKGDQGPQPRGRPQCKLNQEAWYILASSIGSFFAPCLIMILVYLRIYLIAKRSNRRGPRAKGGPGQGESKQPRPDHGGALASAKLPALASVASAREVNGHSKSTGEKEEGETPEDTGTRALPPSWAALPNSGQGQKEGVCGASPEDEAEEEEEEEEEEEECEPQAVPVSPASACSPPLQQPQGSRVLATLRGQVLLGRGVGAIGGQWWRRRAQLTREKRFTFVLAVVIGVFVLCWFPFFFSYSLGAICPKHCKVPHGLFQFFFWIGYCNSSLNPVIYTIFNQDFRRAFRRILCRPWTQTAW
Put plainly: Adrenergic α2B radioligand binding ([3H]Rauwolscine). The gist of the method:
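Human α2B receptor expressed in CHO-K1 cells, in 50 mM Tris-HCl pH 7.4, 12.5 mM MgCl2, 1 mM EDTA, 0.2% BSA. Binding of 2.5 nM [3H]Rauwolscine, 60 min at 25° C, filtration; non-specific defined with 10 μM prazosin.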

Assay [5] concerns the target T5, human recombinant serotonin (5-Hydroxytryptamine) 5-HT6 receptor (Homo sapiens, UniProt P50406).
T5 construct: expressed in transfected cells; host or cells: human HeLa cells
Description: Serotonin 5-HT6 radioligand binding ([3H]LSD). The settings on record: for inhibition at 0.01 µM: compound concentration 10 nM; for inhibition at 0.03 µM: compound concentration 0.03 μM; for inhibition at 0.1 µM: compound concentration 0.1 μM; for inhibition at 0.3 µM: compound concentration 0.3 μM. The gist of the method:
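Human 5-HT6 receptor expressed in HeLa cells, in Tris-HCl pH 7.4 with 150 mM NaCl, ascorbic acid and BSA. Compounds at 1 μM or lower (1% DMSO) incubated 120 min at 37° C with 1.5 nM [3H]LSD. Non-specific binding defined with serotonin; filter counting gives % inhibition of specific binding.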

Where [6] appears, read: 1 h, read-out: Percent Inhibition of ligand binding Serotonin (1 μM ligand concentration) 5-HT2A.
[7] abbreviates: read-out: Percentage inhibition of ligand binding to 5-HT2A receptor.
[8] abbreviates: compound concentration 1 μM, read-out: Percentage inhibition of ligand binding to 5-HT2A receptor.
Setting [9] is: 1 μM, inhibition of specific [125I]Aminopotentidine binding, read-out: Binding data (Percentage Inhibition) Histamine Binding (1 μM) H2.
Setting [10] is: compound concentration 1 μM, read-out: Percentage inhibition of ligand binding to H2 receptor.
The mark [11] stands for this setting: 1 h, read-out: Percent Inhibition of ligand binding Serotonin (1 μM ligand concentration) 5-HT2C.
[12] abbreviates: compound concentration 1 μM, read-out: Percentage inhibition of ligand binding to 5-HT2C receptor.
Setting [13] is: 1 h, read-out: Percent Inhibition of ligand binding Adrenergic (1 μM ligand conc.) α2B.
Where [14] appears, read: compound concentration 1 μM, read-out: Percentage inhibition of ligand binding to Adrenergic α2B receptor.
Where [15] appears, read: 2 h, read-out: Percent Inhibition of ligand binding Serotonin (1 μM ligand concentration) 5-HT6.
The mark [16] stands for this setting: read-out: Percentage inhibition of ligand binding to 5-HT6 receptor.
Setting [17] is: compound concentration 1 μM, read-out: Percentage inhibition of ligand binding to 5-HT6 receptor.

Eleven compounds from patent publication US9260429B2, “Pyrido[3,4-B]indoles and methods of use” (Medivation Technologies, Inc., priority 2008, dated 2016) can be followed below.

SMILES strings stand for the structures. Like-named read-outs stand apart in the source and are kept apart here.

T2 sequence (P25021 whole entry): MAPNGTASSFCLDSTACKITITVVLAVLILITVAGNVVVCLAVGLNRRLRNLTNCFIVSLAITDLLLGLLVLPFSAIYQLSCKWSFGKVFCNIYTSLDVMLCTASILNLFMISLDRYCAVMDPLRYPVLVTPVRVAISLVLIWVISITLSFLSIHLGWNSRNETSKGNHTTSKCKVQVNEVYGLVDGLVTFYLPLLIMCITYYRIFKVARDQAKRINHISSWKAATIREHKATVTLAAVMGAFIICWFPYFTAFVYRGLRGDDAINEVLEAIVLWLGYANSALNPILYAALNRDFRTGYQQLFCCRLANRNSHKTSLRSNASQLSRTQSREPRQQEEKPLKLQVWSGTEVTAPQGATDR
T1 sequence (P28223 whole entry): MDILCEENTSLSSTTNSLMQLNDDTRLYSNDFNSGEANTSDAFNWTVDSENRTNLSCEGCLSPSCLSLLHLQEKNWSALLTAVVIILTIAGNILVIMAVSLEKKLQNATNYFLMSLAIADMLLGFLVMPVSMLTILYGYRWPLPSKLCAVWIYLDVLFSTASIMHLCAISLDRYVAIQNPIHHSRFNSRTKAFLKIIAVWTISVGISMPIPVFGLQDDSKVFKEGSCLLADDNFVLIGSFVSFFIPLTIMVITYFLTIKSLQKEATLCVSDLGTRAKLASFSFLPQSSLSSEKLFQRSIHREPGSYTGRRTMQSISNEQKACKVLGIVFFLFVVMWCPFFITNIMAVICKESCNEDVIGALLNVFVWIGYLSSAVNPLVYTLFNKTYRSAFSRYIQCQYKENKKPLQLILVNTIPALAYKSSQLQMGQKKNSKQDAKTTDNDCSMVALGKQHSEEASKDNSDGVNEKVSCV
T5 sequence (P50406 whole entry): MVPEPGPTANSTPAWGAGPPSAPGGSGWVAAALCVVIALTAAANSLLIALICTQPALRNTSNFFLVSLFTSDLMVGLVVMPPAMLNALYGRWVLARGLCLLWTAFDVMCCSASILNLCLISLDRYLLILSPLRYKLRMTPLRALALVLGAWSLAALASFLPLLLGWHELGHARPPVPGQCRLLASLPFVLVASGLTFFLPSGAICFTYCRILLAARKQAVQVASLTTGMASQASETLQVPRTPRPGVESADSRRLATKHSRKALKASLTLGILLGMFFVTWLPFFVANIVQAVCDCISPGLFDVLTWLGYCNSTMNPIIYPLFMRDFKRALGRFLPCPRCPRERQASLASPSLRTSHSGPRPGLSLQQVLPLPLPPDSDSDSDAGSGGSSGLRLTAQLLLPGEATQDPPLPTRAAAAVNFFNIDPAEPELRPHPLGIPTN

In the case of `C/C(=C\n1c2c(c3cc(Cl)ccc31)CCN(C)C2)c1ccc(F)cc1` [Compound 90, (E)-6-chloro-9-(2-(4-fluorophenyl)prop-1-enyl)-2-methyl-2,3,4,9-tetrahydro-1H-pyrido[3,4-b]indole], the inhibition at 1 µM in assay [1] (setting [6]) turned out to be 97%; in assay [1] (setting [8]) it was 97%; in assay [2] (setting [9]), 64%; in assay [2] (setting [10]) it was 64%; in assay [3] (setting [11]) it was 99%; in assay [3] (setting [12]), 99%. Besides, the inhibition at 1 µM worked out at 97% in assay [4] (setting [13]), 97% in assay [4] (setting [14]), 98% in assay [5] (setting [15]) and 98% in assay [5] (setting [17]). Also, the inhibition at 0.003 µM in assay [1] (compound concentration 3 nM, read-out: Percentage inhibition of ligand binding to 5-HT2A receptor) was determined as 1%; in assay [3] (compound concentration 3 nM, read-out: Percentage inhibition of ligand binding to 5-HT2C receptor), 22%; in assay [5] (compound concentration 3 nM, read-out: Percentage inhibition of ligand binding to 5-HT6 receptor), 16%. Also, the inhibition at 0.01 µM in assay [1] (setting [7]) came to 9%; in assay [3] (compound concentration 10 nM, read-out: Percentage inhibition of ligand binding to 5-HT2C receptor), 37%; in assay [5] (setting [16]) it was 32%. The inhibition at 0.03 µM in assay [1] (setting [7]) was 31%; in assay [3] (compound concentration 0.03 μM, read-out: Percentage inhibition of ligand binding to 5-HT2C receptor), 65%; in assay [5] (setting [16]), 58%. Also, the inhibition at 0.1 µM was 64% in assay [1] (setting [7]); 82% in assay [3] (compound concentration 0.1 μM, read-out: Percentage inhibition of ligand binding to 5-HT2C receptor); 81% in assay [5] (setting [16]). Further, the inhibition at 0.3 µM in assay [1] (setting [7]) turned out to be 87%; in assay [3] (compound concentration 0.3 μM, read-out: Percentage inhibition of ligand binding to 5-HT2C receptor), 93%; in assay [5] (setting [16]) it was 94%.

`CN1CCc2c(n(CC(=O)N(C)C3CCCCC3)c3ccc(Cl)cc23)C1` [Compound 18, 2-(6-chloro-1,2,3,4-tetrahydro-2-methylpyrido[3,4-b]indol-9-yl)-N-cyclohexyl-N-methylacetamide]: the inhibition at 1 µM in assay [1] (setting [6]) is -1%; in assay [2] (setting [9]) it was 7%; in assay [3] (setting [11]), 3%; in assay [4] (setting [13]), 19%; in assay [5] (setting [15]) it was 1%.

With `Cc1ccc2c(c1)c1c(n2/C=C/c2ccccc2)CN(C)CC1` [Compound 92], the inhibition at 1 µM came out at 97% in assay [1] (setting [6]); 97% in assay [1] (setting [8]); 50% in assay [2] (setting [9]); 50% in assay [2] (setting [10]); 96% in assay [3] (setting [11]); 96% in assay [3] (setting [12]). The inhibition at 1 µM in assay [4] (setting [13]) came out at 104%; in assay [4] (setting [14]) it was 104%; in assay [5] (setting [15]) it was 96%; in assay [5] (setting [17]), 96%. Besides, the inhibition at 0.01 µM in assay [1] (setting [7]) amounted to 13%; in assay [5] (setting [16]) it was 14%. Besides, the results for the inhibition at 0.03 µM in assay [1] (setting [7]) and in assay [5] (setting [16]) were 37% and 28%, respectively. In addition, the figures for the inhibition at 0.1 µM in assay [1] (setting [7]) and in assay [5] (setting [16]) were 65% and 60%, respectively. Besides, the results for the inhibition at 0.3 µM in assay [1] (setting [7]) and in assay [5] (setting [16]) were 83% and 81%, respectively.

For `CCC1c2c(c3cc(C)ccc3n2C(=O)Cc2ccc(F)cc2)CCN1C` (stereo not shown) [Compound 159], the inhibition at 1 µM turned out to be 89% in assay [1] (setting [6]); 20% in assay [2] (setting [9]); 103% in assay [3] (setting [11]); 78% in assay [4] (setting [13]); 46% in assay [5] (setting [15]).

Consider `CCC1c2c(c3cc(Cl)ccc3n2CCc2ccc(F)cc2)CCN1C` (stereo not shown) [Compound 78], for which the inhibition at 1 µM in assay [1] (setting [6]) is 80%; in assay [2] (setting [9]), 33%; in assay [3] (setting [11]), 101%; in assay [4] (setting [13]), 102%; in assay [5] (setting [15]) it was 48%.

For `COC(=O)Cn1c2c(c3cc(Cl)ccc31)CCN(C)C2` [Compound 54, methyl 2-(6-chloro-2-methyl-3,4-dihydro-1H-pyrido[3,4-b]indol-9(2H)-yl)acetate], the inhibition at 1 µM in assay [1] (setting [6]) amounted to 0%; in assay [2] (setting [9]) it was 21%; in assay [4] (setting [13]), 18%; in assay [5] (setting [15]) it was 8%. Also, in assay [3] (1 μM ligand concentration), the “Percent Inhibition of ligand binding Serotonin (1 μM ligand concentration) 5-HT2C” value is reported as −1%.

On to `Cc1ccc2c(c1)c1c(n2CC(O)c2ccccc2)CN(C)CC1` (stereo not shown) [Compound 67], for which the inhibition at 1 µM in assay [1] (setting [6]) turned out to be 77%; in assay [2] (setting [9]) it was 8%; in assay [3] (setting [11]), 85%; in assay [4] (setting [13]), 106%; in assay [5] (setting [15]), 51%.

With `C/C(=C\n1c2c(c3cc(Cl)ccc31)CCN(C)C2C)c1ccc(Cl)cc1` (stereo not shown) [Compound 99, 6-chloro-9-(2-(4-chlorophenyl)prop-1-enyl)-1,2-dimethyl-2,3,4,9-tetrahydro-1H-pyrido[3,4-b]indole], the inhibition at 1 µM was found to be 86% in assay [1] (setting [6]); 62% in assay [2] (setting [9]); 97% in assay [3] (setting [11]); 77% in assay [4] (setting [13]); 69% in assay [5] (setting [15]).

As to `CN1CCc2c(n(CC(=O)N3CCCC3)c3ccc(Cl)cc23)C1` [Compound 40, 2-(6-chloro-1,2,3,4-tetrahydro-2-methylpyrido[3,4-b]indol-9-yl)-1-(pyrrolidin-1-yl)ethanone], the inhibition at 1 µM in assay [1] (setting [6]) is 5%; in assay [2] (setting [9]), 4%; in assay [3] (setting [11]), 12%; in assay [4] (setting [13]) it was 18%; in assay [5] (setting [15]), 6%.

Regarding `C/C(=C/n1c2c(c3cc(Cl)ccc31)CCN(C)C2C)c1ccccc1F` (stereo not shown) [Compound 167], the inhibition at 1 µM was determined as 88% in assay [1] (setting [6]); 51% in assay [2] (setting [9]); 95% in assay [3] (setting [11]); 94% in assay [4] (setting [13]); 55% in assay [5] (setting [15]).

In the case of `Cc1ccc(CCCn2c3c(c4cc(Cl)ccc42)CCN(C)C3)cn1` [Compound 56, 6-chloro-2-methyl-9-(3-(6-methylpyridin-3-yl)propyl)-2,3,4,9-tetrahydro-1H-pyrido[3,4-b]indole], the inhibition at 1 µM in assay [1] (setting [6]) is 12%; in assay [2] (setting [9]) it was 20%; in assay [3] (setting [11]), -3%; in assay [4] (setting [13]), -10%; in assay [5] (setting [15]) it was -3%.
